Results: PMC9468336, “The choanoflagellate pore-forming lectin SaroL-1 punches holes in cancer cells by targeting the tumor-related glycosphingolipid Gb3” (Communications Biology, 2022)
Read-outs that look alike come from different tables or passages of the source.

Columns and labels:
[1] = target: T1, hemolytic activity of SaroL-1 on rabbit erythrocytes (Salpingoeca rosetta, UniProt F2UID9); assay: Inhibition of hemolytic activity (IHA) of SaroL-1 by carbohydrates; type: cell-based; details: for inhibition: SaroL-1 217 nM, read-out: Mean % inhibition of hemolysis
T1 sequence (F2UID9 1-329): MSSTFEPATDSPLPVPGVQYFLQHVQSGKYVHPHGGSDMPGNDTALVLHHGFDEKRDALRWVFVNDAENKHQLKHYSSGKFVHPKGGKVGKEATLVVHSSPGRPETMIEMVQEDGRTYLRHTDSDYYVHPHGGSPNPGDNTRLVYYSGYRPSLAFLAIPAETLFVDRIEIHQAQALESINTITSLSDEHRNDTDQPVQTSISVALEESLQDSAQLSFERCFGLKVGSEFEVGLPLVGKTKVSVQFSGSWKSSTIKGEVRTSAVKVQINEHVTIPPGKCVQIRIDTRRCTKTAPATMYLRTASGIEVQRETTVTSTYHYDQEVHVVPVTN
Protocol: (§1) Both HA and IHA assays were performed in U-shaped 96-well microtiter plates. In both cases, a control negative experiment was performed with Buffer A added to erythrocyte solution (2% final concentration), and the resulting value was subtracted from all data.
IHA was performed in U-shaped 96-well microtiter plates. […] 4% rabbit erythrocytes were added to the mixture in a 1:1 ratio and incubated for 1–2 h at 37 °C. The samples were centrifuged, 2600 × g for 15 min at RT, and the absorbance of the supernatant was measured at 540 nm by a Tecan reader.

[2] = Confocal imaging of SaroL-1 binding to FSL-Gb3 GUVs; details: 200 nM fluorescent-labelled SaroL-1, FSL-Gb3 GUVs
Excerpt: (§2) GUVs were composed of 1,2-dioleoyl-sn-glycero-3-phosphocholine (DOPC), cholesterol (both AvantiPolar Lipids, United States), Atto 647 N 1,2-dioleoyl-sn-glycero-3-phosphoethanolamine (DOPE; Sigma-Aldrich), and one of the following glycolipids at a molar ratio of 64.7:30:0.3:5. The glycolipids are globotriaosylceramide (Gb3, Matreya), FSL-Gb3 (Function-Spacer-Lipid with globotriaosyl saccharide), and corresponding FSL-isoGb3 (Function-Spacer-Lipid with iso-globotriaosyl saccharide) synthetized as previously described[84],[85], FSL-A(tri) (Function-Spacer-Lipid with blood group A trisaccharide; Sigma-Aldrich), FSL-B(tri) (Function-Spacer-Lipid with blood group B trisaccharide; Sigma-Aldrich) or lactosylceramide (LC, Sigma-Aldrich).
(§3) GUVs were prepared by the electroformation method as earlier described. Briefly, lipids dissolved in chloroform of a total concentration of 0.5 mg/mL were spread on indium tin oxid-covered (ITO) glass slides and dried in a vacuum for at least 1 h or overnight. […]
(§4) Samples of GUVs and SaroL-1 were imaged using a confocal fluorescence microscope (Nikon Eclipse Ti-E inverted microscope equipped with Nikon A1R confocal laser scanning system, 60x oil immersion objective, NA = 1.49 and four laser lines: 405 nm, 488 nm, 561 nm, and 640 nm). […]

[3] = Confocal imaging of SaroL-1 binding to Gb3 wt GUVs; design: species or system porcine; details: 200 nM fluorescent SaroL-1, Gb3 wt GUVs, compared with FSL-Gb3 GUVs
Excerpt: as §2, §3, §4

[4] = Confocal imaging of SaroL-1 binding to lactosylceramide GUVs; details: 200 nM labelled SaroL-1, Lac-cer GUVs
Excerpt: as §2, §3, §4

H1299 cells = assay: Lactate dehydrogenase (LDH) assay; type: cell-based, human; details: 271 nM and 1.36 µM SaroL-1, 2 and 4 h
Protocol: The human lung epithelial cell line H1299 (American Type Culture Collection, CRL-5803) was cultured in a complete medium, consisting of Roswell Park Memorial Institute (RPMI) medium supplemented with 10% fetal calf serum (FCS) and 2 mM L-glutamine at 37 °C and 5% CO2. Cells were stimulated with different concentrations of SaroL-1 in a complete medium for indicated time points.
This assay was used to monitor rapid changes in cell viability following the formation of pores induced by SaroL-1. Prior to running the assay, kit components were assembled according to CyQuant^TM LDH Cytotoxicity assay kit (Invitrogen—Thermo Fisher Scientific) manufacturer´s instructions. 1 × 10^4 cells per well were plated in 100 µL in triplicates in a 96-well plate with a flat bottom and allowed to adhere overnight. […] After 30 min\ of incubation at room temperature and in absence of light, 50 µL of Stop solution were added to each well and the absorbance of samples was recorded at 490 nm and 680 nm using a BioTek microplate reader. To determine LDH activity, the reference absorbance at […] (background) was subtracted from the 490 nm absorbance values before calculation of % cytotoxicity. % cytotoxicity was calculated according to the following formula = [SaroL-1-treated LDH activity − spontaneous LDH activity]/[maximum LDH activity − spontaneous LDH activity] × 100.

rabbit erythrocytes = assay: Hemolytic assay (HA); type: cell-based
Protocol: as §1
SaroL-1 with an initial concentration of 27 μM was diluted by serial 2-fold dilution in Buffer A. Rabbit erythrocytes were purchased from Atlantis France and used without further washing. The erythrocytes were diluted to a 4% solution in 150 mM NaCl. Protein solution and rabbit erythrocytes were mixed together in a 1:1 ratio and incubated for 1 h at 37 °C. After the samples were centrifuged, 2600 × g for 15 min at RT and the absorbance of the supernatant was measured at 540 nm by a Tecan reader.

O=[N+]([O-])c1ccc(O[C@H]2O[C@H](CO)[C@H](O)[C@H](O)[C@H]2O)cc1 [PNPG, p-nitrophenyl-α-D-galactopyranoside]
inhibition of hemolysis (in words) ([1]; 10 mM carbohydrate): complete inhibition
inhibition ([1]; sugar 0.003 mM): 8.15%
inhibition ([1]; sugar 0.006 mM): 10.7%
inhibition ([1]; sugar 0.0125 mM): 12.1%
inhibition ([1]; sugar 0.025 mM): 9.06%
inhibition ([1]; sugar 0.05 mM): 3.85%
inhibition ([1]; sugar 0.1 mM): 3.39%
inhibition ([1]; sugar 0.2 mM): 1.44%
inhibition ([1]; sugar 0.4 mM): 2.69%
inhibition ([1]; sugar 0.8 mM): 8.59%
inhibition ([1]; sugar 1.6 mM): 24.5%
inhibition ([1]; sugar 3.125 mM): 55.9%
inhibition ([1]; sugar 6.25 mM): 90.5%
inhibition ([1]; sugar 12.5 mM): 100%
inhibition ([1]; sugar 25 mM): 100%
inhibition ([1]; sugar 50 mM): 100%

B1: SaroL-1: Recombinant pore-forming lectin of Salpingoeca rosetta (UniProt F2UID9, 329 amino acids) with β-trefoil and aerolysin-like domains (protein)
chain: MSSTFEPATDSPLPVPGVQYFLQHVQSGKYVHPHGGSDMPGNDTALVLHHGFDEKRDALRWVFVNDAENKHQLKHYSSGKFVHPKGGKVGKEATLVVHSSPGRPETMIEMVQEDGRTYLRHTDSDYYVHPHGGSPNPGDNTRLVYYSGYRPSLAFLAIPAETLFVDRIEIHQAQALESINTITSLSDEHRNDTDQPVQTSISVALEESLQDSAQLSFERCFGLKVGSEFEVGLPLVGKTKVSVQFSGSWKSSTIKGEVRTSAVKVQINEHVTIPPGKCVQIRIDTRRCTKTAPATMYLRTASGIEVQRETTVTSTYHYDQEVHVVPVTN
modifications: left off: His6, N-terminal, state not stated
notes: Recombinant pore-forming lectin of Salpingoeca rosetta (UniProt F2UID9, 329 amino acids) with β-trefoil and aerolysin-like domains
binding to GUVs [2]: Strong binding
binding to GUVs [3]: of the same order
binding to GUVs [4]: very weak binding
LDH release / membrane damage (in words) (H1299 cells): induced acute cytotoxicity
Hemolysis MEAN % (rabbit erythrocytes; SaroL-1 7 nM): -2.217%
Hemolysis MEAN % (rabbit erythrocytes; SaroL-1 14 nM): -0.8961%
Hemolysis MEAN % (rabbit erythrocytes; SaroL-1 27 nM): -0.5487%
Hemolysis MEAN % (rabbit erythrocytes; SaroL-1 55 nM): 5.667%
Hemolysis MEAN % (rabbit erythrocytes; SaroL-1 110 nM): 24.3716%
Hemolysis MEAN % (rabbit erythrocytes; SaroL-1 217 nM): 59.5625%
Hemolysis MEAN % (rabbit erythrocytes; SaroL-1 423 nM): 85.1119%
Hemolysis MEAN % (rabbit erythrocytes; SaroL-1 843 nM): 95.7679%
Hemolysis MEAN % (rabbit erythrocytes; SaroL-1 1680 nM): 93.9729%
Hemolysis MEAN % (rabbit erythrocytes; SaroL-1 3400 nM): 95.1481%
Hemolysis MEAN % (rabbit erythrocytes; SaroL-1 6790 nM): 95.7781%
Hemolysis MEAN % (rabbit erythrocytes; SaroL-1 13590 nM): 100%
